# From ChEMBL document CHEMBL1129235, “Discovery of the hemifumarate and (alpha-L-alanyloxy)methyl ether as prodrugs of an antirheumatic oxindole: prodrugs for the enolic OH group” (J Med Chem, 1996)
# What was measured:
# [1] = species: Rattus norvegicus; experiment: Relative bioavailability of prodrugs in rat; assay type: ADME, organism-based; conditions: in vivo
# [2] = (§1) Aqueous solubility; assay type: physicochemical; conditions: aqueous medium (not further specified); read-out: S
# [3] = as §1; assay type: physicochemical; conditions: aqueous medium (not further specified); read-out: S; remark: listed apart in the source
# [4] = species: Canis familiaris; experiment: Relative bioavailability of oxindole prodrugs in dog; assay type: ADME, organism-based, Canis lupus familiaris; conditions: in vivo
# [5] = as §1; assay type: physicochemical; conditions: aqueous medium (not further specified); read-out: S; remark: listed apart in the source
# [6] = Relative bioavailability of oxindole prodrugs in monkey; assay type: ADME, organism-based; conditions: simiiformes, in vivo
# [7] = as §1; assay type: physicochemical; conditions: aqueous medium (not further specified); read-out: S; remark: listed apart in the source
# [8] = Ionization constant for the compound was evaluated; assay type: physicochemical
Structure (SMILES),Relative F% [1],solubility [2] [µg/mL],further results
CC(C)OC(=O)OC(C)O/C(=C1/C(=O)N(C(N)=O)c2cc(Cl)c(F)cc21)c1cccs1 (stereo not drawn),12,–,–
NC(=O)N1C(=O)/C(=C(/OCOC(=O)c2ccccc2)c2cccs2)c2cc(F)c(Cl)cc21,0,–,–
CC(C)C(N)C(=O)OCO/C(=C1/C(=O)N(C(N)=O)c2cc(Cl)c(F)cc21)c1cccs1.Cc1ccc(S(=O)(=O)O)cc1 (stereo not drawn),27,–,–
NC(=O)N1C(=O)/C(=C(/OCOC(=O)COCc2ccccc2)c2cccs2)c2cc(F)c(Cl)cc21,42,–,–
NC(=O)N1C(=O)/C(=C(\OC(=O)c2ccccc2)c2cccs2)c2cc(F)c(Cl)cc21,0,–,–
NC(=O)N1C(=O)/C(=C(\OC(=O)c2cccnc2)c2cccs2)c2cc(F)c(Cl)cc21,0,< 0.06,solubility [3]: < 0.06 µg/mL
CC(=O)OCC(=O)OCO/C(=C1/C(=O)N(C(N)=O)c2cc(Cl)c(F)cc21)c1cccs1,17,< 0.02,–
CC(C)CC(N)C(=O)OCO/C(=C1/C(=O)N(C(N)=O)c2cc(Cl)c(F)cc21)c1cccs1.Cc1ccc(S(=O)(=O)O)cc1 (stereo not drawn),81,–,–
NC(=O)N1C(=O)/C(=C(\OC(=O)c2ccncc2)c2cccs2)c2cc(F)c(Cl)cc21,2.2,0.32,solubility [3]: < 0.07 µg/mL
O=C(c1cccs1)c1c2cc(F)c(Cl)cc2n2c(=O)[nH]c(=O)oc12,25,17,–
CC(C)(C)OC(=O)NCC(=O)OCO/C(=C1/C(=O)N(C(N)=O)c2cc(Cl)c(F)cc21)c1cccs1,0,0.06,–
NC(=O)N1C(=O)/C(=C(/OC(=O)/C=C/c2ccccc2)c2cccs2)c2cc(F)c(Cl)cc21,4,–,–
CC(NC(=O)OC(C)(C)C)C(=O)OCO/C(=C1/C(=O)N(C(N)=O)c2cc(Cl)c(F)cc21)c1cccs1 (stereo not drawn),20,–,–
CCN(CC)C(=O)COC(=O)CCC(=O)O/C(=C1/C(=O)N(C(N)=O)c2cc(Cl)c(F)cc21)c1cccs1,16,–,–
NC(=O)N1C(=O)/C(=C(\OC(=O)c2ccccn2)c2cccs2)c2cc(F)c(Cl)cc21,1.6,< 0.06,solubility [3]: < 0.06 µg/mL
Cc1ccc(S(=O)(=O)O)cc1.NCC(=O)OCO/C(=C1/C(=O)N(C(N)=O)c2cc(Cl)c(F)cc21)c1cccs1,46,–,Relative bioavailability [4]: 78
C[C@@H](N)C(=O)OCO/C(=C1/C(=O)N(C(N)=O)c2cc(Cl)c(F)cc21)c1cccs1.Cc1ccc(S(=O)(=O)O)cc1,80,–,Relative bioavailability [4]: 78; Relative bioavailability [6]: 78; solubility [5]: 150 µg/mL
CCCC(OCc1ccccc1)C(=O)OCO/C(=C1/C(=O)N(C(N)=O)c2cc(Cl)c(F)cc21)c1cccs1 (stereo not drawn),58,–,Relative bioavailability [4]: 7.5
NC(=O)N1C(=O)/C(=C(\OC(=O)c2cccc(C(=O)O)c2)c2cccs2)c2cc(F)c(Cl)cc21,4.2,0.58,–
CCN(CC)C(=O)OCC(=O)OCO/C(=C1/C(=O)N(C(N)=O)c2cc(Cl)c(F)cc21)c1cccs1,36,–,–
CCC(OCc1ccccc1)C(=O)OCO/C(=C1/C(=O)N(C(N)=O)c2cc(Cl)c(F)cc21)c1cccs1 (stereo not drawn),86,–,Relative bioavailability [4]: 12
NC(=O)N1C(=O)/C(=C(/OC(=O)/C=C/C(=O)O)c2cccs2)c2cc(F)c(Cl)cc21,95,0.08,Relative bioavailability [4]: 91; Relative bioavailability [6]: 73; solubility [5]: 2.5 µg/mL; solubility [7]: 24 µg/mL
COCC(=O)OC(C)O/C(=C1/C(=O)N(C(N)=O)c2cc(Cl)c(F)cc21)c1cccs1 (stereo not drawn),47,0.34,Relative bioavailability [4]: 5.2
Cl.Cl.NCCCCC(N)C(=O)OCO/C(=C1/C(=O)N(C(N)=O)c2cc(Cl)c(F)cc21)c1cccs1 (stereo not drawn),49,–,–
NC(=O)N1C(=O)C(=C(O)c2cccs2)c2cc(F)c(Cl)cc21 [ILONIDAP],100,40,Relative bioavailability [4]: 100; Relative bioavailability [6]: 100; pKa [8]: 3.5

# Second part, led by results:
Relative F% [1],solubility [2] [µg/mL],Structure (SMILES),further results
3.5,0.023,CCOC(=O)O/C(=C1\C(=O)N(C(N)=O)c2cc(Cl)c(F)cc21)c1cccs1,–
2.3,0.04,CC(=O)OC(C)O/C(=C1/C(=O)N(C(N)=O)c2cc(Cl)c(F)cc21)c1cccs1 (stereo not drawn),–
90,–,CC(O)C(=O)OCO/C(=C1/C(=O)N(C(N)=O)c2cc(Cl)c(F)cc21)c1cccs1 (stereo not drawn),Relative bioavailability [4]: 22; solubility [5]: 0.38 µg/mL
3.5,–,CCOC(=O)CCC(=O)O/C(=C1\C(=O)N(C(N)=O)c2cc(Cl)c(F)cc21)c1cccs1,–
6.6,0.003,CCC(=O)O/C(=C1\C(=O)N(C(N)=O)c2cc(Cl)c(F)cc21)c1cccs1,–
93,–,CCC(OC)C(=O)OCO/C(=C1/C(=O)N(C(N)=O)c2cc(Cl)c(F)cc21)c1cccs1 (stereo not drawn),–
14,0.011,CC(=O)O/C(=C1\C(=O)N(C(N)=O)c2cc(Cl)c(F)cc21)c1cccs1,–
26,0.009,CCOC(=O)OC(C)O/C(=C1/C(=O)N(C(N)=O)c2cc(Cl)c(F)cc21)c1cccs1 (stereo not drawn),Relative bioavailability [4]: 1.4
62,–,COCC(=O)OCO/C(=C1/C(=O)N(C(N)=O)c2cc(Cl)c(F)cc21)c1cccs1,–
3.7,–,CC(C)(C)C(=O)O/C(=C1\C(=O)N(C(N)=O)c2cc(Cl)c(F)cc21)c1cccs1,–
17,0.013,CCCCC(=O)O/C(=C1\C(=O)N(C(N)=O)c2cc(Cl)c(F)cc21)c1cccs1,–
5.7,–,CCCCCCCCOC(=O)O/C(=C1/C(=O)N(C(N)=O)c2cc(Cl)c(F)cc21)c1cccs1,–
6.6,–,CC(=O)OCC(=O)O/C(=C1\C(=O)N(C(N)=O)c2cc(Cl)c(F)cc21)c1cccs1,–
45,–,COC(C)C(=O)OCO/C(=C1/C(=O)N(C(N)=O)c2cc(Cl)c(F)cc21)c1cccs1 (stereo not drawn),–
8.9,–,COCC(=O)O/C(=C1\C(=O)N(C(N)=O)c2cc(Cl)c(F)cc21)c1cccs1,–
13,–,COC(=O)O/C(=C1\C(=O)N(C(N)=O)c2cc(Cl)c(F)cc21)c1cccs1,–
21,< 0.02,CCOC(=O)/C=C/C(=O)O/C(=C1/C(=O)N(C(N)=O)c2cc(Cl)c(F)cc21)c1cccs1,Relative bioavailability [4]: 6.4
0,–,CC(C)(C)C(=O)OCO/C(=C1/C(=O)N(C(N)=O)c2cc(Cl)c(F)cc21)c1cccs1,–
0.6,–,CC(C)OC(=O)O/C(=C1/C(=O)N(C(N)=O)c2cc(Cl)c(F)cc21)c1cccs1 (stereo in doubt; 32),–
9.9,–,CC(C)OC(=O)O/C(=C1/C(=O)N(C(N)=O)c2cc(Cl)c(F)cc21)c1cccs1 (stereo in doubt; 33),–
